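Cultured in 96-well plates, cells were exposed to test compound for 48 hours across five concentrations. The concentration for 50% growth inhibition is given as GI50. At the TGI there is no net growth.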
Assays:
Test in all cases: NCI anticancer screen, dose series, 48 h
SR leukemia = test system: SR leukemia
HCT-116 colon = test system: HCT-116 colon
LOX IMVI melanoma = test system: LOX IMVI melanoma
MCF7 breast = test system: MCF7 breast
SNB-19 CNS = test system: SNB-19 CNS
SN12C renal = test system: SN12C renal
SK-MEL-5 melanoma = test system: SK-MEL-5 melanoma
RXF 393 renal = test system: RXF 393 renal
MOLT-4 leukemia = test system: MOLT-4 leukemia
K-562 leukemia = test system: K-562 leukemia
U251 CNS = test system: U251 CNS
PC-3 prostate = test system: PC-3 prostate
HS 578T breast = test system: HS 578T breast
T-47D breast = test system: T-47D breast
SK-MEL-28 melanoma = test system: SK-MEL-28 melanoma
SF-539 CNS = test system: SF-539 CNS
IGROV1 ovarian = test system: IGROV1 ovarian
UACC-62 melanoma = test system: UACC-62 melanoma
OVCAR-4 ovarian = test system: OVCAR-4 ovarian
OVCAR-3 ovarian = test system: OVCAR-3 ovarian
HCT-15 colon = test system: HCT-15 colon
CCRF-CEM leukemia = test system: CCRF-CEM leukemia
HT29 colon = test system: HT29 colon
NCI/ADR-RES ovarian = test system: NCI/ADR-RES ovarian
BT-549 breast = test system: BT-549 breast
OVCAR-8 ovarian = test system: OVCAR-8 ovarian
A549 NSCLC = test system: A549 NSCLC
SW-620 colon = test system: SW-620 colon
M14 melanoma = test system: M14 melanoma
NCI-H460 lung = test system: NCI-H460 lung
HOP-92 NSCLC = test system: HOP-92 NSCLC
UACC-257 melanoma = test system: UACC-257 melanoma
COLO 205 colon = test system: COLO 205 colon
NCI-H226 lung = test system: NCI-H226 lung
TK-10 renal = test system: TK-10 renal
MALME-3M melanoma = test system: MALME-3M melanoma
HL-60(TB) leukemia = test system: HL-60(TB) leukemia
HCC-2998 colon = test system: HCC-2998 colon
SF-268 CNS = test system: SF-268 CNS
SF-295 CNS = test system: SF-295 CNS
EKVX NSCLC = test system: EKVX NSCLC
KM12 colon = test system: KM12 colon
SNB-75 CNS = test system: SNB-75 CNS
A498 renal = test system: A498 renal
HOP-62 NSCLC = test system: HOP-62 NSCLC
DU-145 prostate = test system: DU-145 prostate
MDA-MB-231 breast = test system: MDA-MB-231 breast
CAKI-1 renal = test system: CAKI-1 renal
MDA-MB-435 = test system: MDA-MB-435
UO-31 renal = test system: UO-31 renal
ACHN renal = test system: ACHN renal
786-0 renal = test system: 786-0 renal
SK-OV-3 ovarian = test system: SK-OV-3 ovarian
OVCAR-5 ovarian = test system: OVCAR-5 ovarian
SK-MEL-2 melanoma = test system: SK-MEL-2 melanoma
RPMI-8226 leukemia = test system: RPMI-8226 leukemia
NCI-H522 lung = test system: NCI-H522 lung
NCI-H23 lung = test system: NCI-H23 lung

O=C(N/N=C\c1cc(Cl)ccc1O)c1ccncc1
GI50 (SR leukemia): 2.85 µM
TGI (SR leukemia): > 100 µM
GI50 (HCT-116 colon): 1.63 µM
TGI (HCT-116 colon): > 100 µM
GI50 (LOX IMVI melanoma): 1.56 µM
TGI (LOX IMVI melanoma): > 100 µM
GI50 (MCF7 breast): 2.05 µM
TGI (MCF7 breast): > 100 µM
GI50 (SNB-19 CNS): 5.95 µM
TGI (SNB-19 CNS): > 100 µM
GI50 (SN12C renal): 4 µM
TGI (SN12C renal): > 100 µM
GI50 (SK-MEL-5 melanoma): 1.96 µM
TGI (SK-MEL-5 melanoma): 19 µM
GI50 (RXF 393 renal): 2.43 µM
TGI (RXF 393 renal): > 100 µM
GI50 (MOLT-4 leukemia): 2.91 µM
TGI (MOLT-4 leukemia): > 100 µM
GI50 (K-562 leukemia): 4.55 µM
TGI (K-562 leukemia): > 100 µM
GI50 (U251 CNS): 1.86 µM
TGI (U251 CNS): > 100 µM
GI50 (PC-3 prostate): 3.69 µM
TGI (PC-3 prostate): > 100 µM
GI50 (HS 578T breast): 26 µM
TGI (HS 578T breast): > 100 µM
GI50 (T-47D breast): 2.1 µM
TGI (T-47D breast): > 100 µM
GI50 (SK-MEL-28 melanoma): 3.05 µM
TGI (SK-MEL-28 melanoma): > 100 µM
GI50 (SF-539 CNS): 3.97 µM
TGI (SF-539 CNS): > 100 µM
GI50 (IGROV1 ovarian): 6.16 µM
TGI (IGROV1 ovarian): > 100 µM
GI50 (UACC-62 melanoma): 1.48 µM
TGI (UACC-62 melanoma): 13.7 µM
GI50 (OVCAR-4 ovarian): 0.967 µM
TGI (OVCAR-4 ovarian): 73.5 µM
GI50 (OVCAR-3 ovarian): 0.617 µM
TGI (OVCAR-3 ovarian): > 100 µM
GI50 (HCT-15 colon): 0.576 µM
TGI (HCT-15 colon): > 100 µM
GI50 (CCRF-CEM leukemia): 2.15 µM
TGI (CCRF-CEM leukemia): > 100 µM
GI50 (HT29 colon): 5.9 µM
TGI (HT29 colon): > 100 µM
GI50 (NCI/ADR-RES ovarian): 2.01 µM
TGI (NCI/ADR-RES ovarian): > 100 µM
GI50 (BT-549 breast): 9.18 µM
TGI (BT-549 breast): > 100 µM
GI50 (OVCAR-8 ovarian): 3.39 µM
TGI (OVCAR-8 ovarian): > 100 µM
GI50 (A549 NSCLC): 12.9 µM
TGI (A549 NSCLC): > 100 µM
GI50 (SW-620 colon): 3.42 µM
TGI (SW-620 colon): > 100 µM
GI50 (M14 melanoma): 3.05 µM
TGI (M14 melanoma): 23.4 µM
GI50 (NCI-H460 lung): 1.46 µM
TGI (NCI-H460 lung): > 100 µM
GI50 (HOP-92 NSCLC): 3.47 µM
TGI (HOP-92 NSCLC): 61.3 µM
GI50 (UACC-257 melanoma): 4.16 µM
TGI (UACC-257 melanoma): > 100 µM
GI50 (COLO 205 colon): 4.21 µM
TGI (COLO 205 colon): > 100 µM
GI50 (NCI-H226 lung): 2.61 µM
TGI (NCI-H226 lung): 59 µM
GI50 (TK-10 renal): 17.6 µM
TGI (TK-10 renal): > 100 µM
GI50 (MALME-3M melanoma): 14.6 µM
TGI (MALME-3M melanoma): > 100 µM
GI50 (HL-60(TB) leukemia): 3.02 µM
TGI (HL-60(TB) leukemia): > 100 µM
GI50 (HCC-2998 colon): 3.03 µM
TGI (HCC-2998 colon): > 100 µM
GI50 (SF-268 CNS): 2.69 µM
TGI (SF-268 CNS): > 100 µM
GI50 (SF-295 CNS): 5.29 µM
TGI (SF-295 CNS): > 100 µM
GI50 (EKVX NSCLC): 27.3 µM
TGI (EKVX NSCLC): > 100 µM
GI50 (KM12 colon): 4.61 µM
TGI (KM12 colon): > 100 µM
GI50 (SNB-75 CNS): 9.29 µM
TGI (SNB-75 CNS): > 100 µM
GI50 (A498 renal): 15.2 µM
TGI (A498 renal): > 100 µM
GI50 (HOP-62 NSCLC): 2.97 µM
TGI (HOP-62 NSCLC): > 100 µM
GI50 (DU-145 prostate): 4.63 µM
TGI (DU-145 prostate): > 100 µM
GI50 (MDA-MB-231 breast): 3.67 µM
TGI (MDA-MB-231 breast): > 100 µM
GI50 (CAKI-1 renal): 1.65 µM
TGI (CAKI-1 renal): > 100 µM
GI50 (MDA-MB-435): 11.7 µM
TGI (MDA-MB-435): > 100 µM
GI50 (UO-31 renal): 2.18 µM
TGI (UO-31 renal): > 100 µM
GI50 (ACHN renal): 1.91 µM
TGI (ACHN renal): > 100 µM
GI50 (786-0 renal): 2.6 µM
TGI (786-0 renal): 32.2 µM
GI50 (SK-OV-3 ovarian): 5.39 µM
TGI (SK-OV-3 ovarian): > 100 µM
GI50 (OVCAR-5 ovarian): 25.5 µM
TGI (OVCAR-5 ovarian): > 100 µM
GI50 (SK-MEL-2 melanoma): 19.5 µM
TGI (SK-MEL-2 melanoma): > 100 µM
GI50 (RPMI-8226 leukemia): 8.85 µM
TGI (RPMI-8226 leukemia): > 100 µM
GI50 (NCI-H522 lung): 2.69 µM
TGI (NCI-H522 lung): 22.4 µM
GI50 (NCI-H23 lung): 4.01 µM
TGI (NCI-H23 lung): > 100 µM

Source: PubChem BioAssay (NCI)
